A word on the CC50: it is the concentration at which the toxic effect on the cells reaches its halfway point. High values mean better tolerance by the cells, low ones harm at low concentration.

SMILES strings stand for the structures. ≈ marks a conversion by molar mass, not a printed value. A value given as a limit tells only on which side of the number the result lay.

Common to all, as to assay type: cell-based
For data set [1], the system named is HSV-1 (Tomioka strain). The data set is described as follows: Anti-viral activity against herpes simplex virus, neutral red dye-uptake method in Vero cells. Particulars: Human alphaherpesvirus 1, 72 h, 3 days at 37° C., read-out: ID50 (the source's name). The procedure: (§1) The anti-viral activity of the prepared compounds against herpes simplex virus was measured by neutral red dye-uptake method (J. Infect. Dis. 148: 868 (1983)) with modification. Precisely, threefold dilutions of the compounds were prepared in 100 μl volumes of culture medium in the wells of a 96-well culture plate. Sixty microliters of a suspension of Vero cells (3×10^5 cells/ml) were then dispensed into each well. HSV-1 (Tomioka strain) was diluted in medium to approximately 100 TCID50 /40 μl, as determined by prior titration in a similar dye uptake assay, and 40 μl of viral suspension were added to the respective wells. Control wells containing no test compound and no virus (cell control) or no cells (blank control) were included in each plate. After 3 days incubation at 37° C. in 5% CO2 atmosphere, 50 μl of neutral red dye (0.15% in saline, pH 5.5) was dispensed into each well and the cultures were incubated for a further 45 min at 37° C. Unincorporated dye was removed by rinsing with PBS. The dye incorporated by viable cells was then eluted into 100 μl per well of citrate ethanol buffer (pH 4.2; equal volumes of 0.1 M Sorensen citrate buffer and ethanol), and absorbance at 540 nm of the solution was measured. […] As a comparative compound, acyclovir was used.

A short description of data set [2]: in vitro. Particulars: african green monkey, vero cells. As to the method:
as §1

For data set [3], the system named is varicella zoster virus (Kawaguchi strain). The data set is described as follows: Anti-viral activity against varicella zoster virus, plaque reduction assay in human embryonic lung (HEL) cells. Particulars: Human alphaherpesvirus 3, 72 h, 3 days, read-out: PI50 (50% plaque decrease concentration). As to the method:
The activity of test compounds against varicella zoster virus was measured by plaque reduction assay. Confluent monolayers of human embryonic lung (HEL) cells grown in 6-well plates were infected with varicella zoster virus (Kawaguchi strain) in such a way that each well might have 100 plaque-forming units. After incubated at 37 C. for one hour in 5% CO2 atmosphere, the inoculum was removed and 3 ml of maintenance media containing the test compound having a varying concentration was added thereto. The incubation was continued for 3 days. After incubation, the cells were fixed and stained, the number of plaques was counted microscopically. In comparison to the control, the 50% plaque decrease concentration (PI50) of the test compound was determined. As a comparative compound, acyclovir was used.

As to `O=c1[nH]c(=O)n(C[C@@]2(CO)C[C@@H]2CO)cc1/C=C/Br` [Example 14, 1-[1'R,2'S-bis(hydroxymethyl)-cyclopropan-1'-yl]methyl-5-[(E)-2-bromoethenyl]-2,4(1H,3H)-pyrimidinedione], the EC50 in data set [1] is over 500 µg/mL. In data set [2], this compound yielded a 50% cytotoxic concentration (CC50) at 72 h of over 500 µg/mL. Further, the IC50 in data set [3] was found to be 7.4 µg/mL (≈ 22.3 µM).

Regarding `O=c1[nH]c(=O)n(C[C@]2(CO)C[C@H]2CO)cc1Cl` [Example 2, 1-[1'S,2'R-bis(hydroxymethyl)-cyclopropan-1'-yl]methyl-5-chloro-2,4(1H,3H)-pyrimidinedione], in data set [1], the EC50 came to 295 µg/mL (≈ 1130 µM). Moreover, in data set [2], the cytotoxic concentration (CC50) at 72 h was over 500 µg/mL. The IC50 in data set [3] is over 100 µg/mL.

With `O=c1[nH]c(=O)n(C[C@]2(CO)C[C@@H]2CO)cc1/C=C/Br` (relative stereo) [Example 15, 1-[1'α,2'β-2-bis(hydroxymethyl)cyclopropanyl-yl]methyl-5-[(E)-2-bromoethenyl]-2,4(1H,3H)-pyrimidinedione], the EC50 in data set [1] came out at 78 µg/mL (≈ 236 µM). In data set [2], this compound returned a 50% cytotoxic concentration (CC50) at 72 h of over 500 µg/mL. The IC50 in data set [3] came out at 87 µg/mL (≈ 263 µM).

Take `O=c1[nH]c(=O)n(C[C@]2(CO)C[C@H]2CO)cc1C(F)(F)F` [Example 5, 1-[1'S,2'R-bis(hydroxymethyl)-cyclopropan-1'-yl]methyl-5-trifluoromethyl-2,4(1H,3H)-pyrimidinedione]: in data set [1], the EC50 was over 500 µg/mL. In data set [2], this compound returned a CC50 at 72 h of 234 µg/mL (≈ 795 µM). Moreover, the IC50 in data set [3] was over 100 µg/mL.

For `CC#Cc1cn(C[C@]2(CO)C[C@H]2CO)c(=O)[nH]c1=O` [Example 12, 1-[1'S,2'R-bis(hydroxymethyl)-cyclopropan-1'-yl]methyl-5-(1-propynyl)-2,4(1H,3H)-pyrimidinedione], the EC50 in data set [1] is 325 µg/mL (≈ 1230 µM). The cytotoxic concentration (CC50) at 72 h in data set [2] is over 500 µg/mL. Moreover, the IC50 in data set [3] worked out at 19.8 µg/mL (≈ 74.9 µM).

Consider `O=c1[nH]c(=O)n(C[C@]2(CO)C[C@H]2CO)cc1/C=C/Cl` [Example 7, 1-[1'S, 2'R-bis(hydroxymethyl)-cyclopropan-1'-yl]methyl-5-[(E)-2-chloroethenyl]-2,4(1H,3H)-pyrimidinedione], for which the EC50 in data set [1] is 4.3 µg/mL (≈ 15 µM). For the same compound, in data set [2], the CC50 at 72 h is over 500 µg/mL. Also, the IC50 in data set [3] is 0.07 µg/mL (≈ 0.244 µM).

With `C=Cc1cn(C[C@]2(CO)C[C@H]2CO)c(=O)[nH]c1=O` [Example 6, 1-[1'S,2'R-bis(hydroxymethyl)cyclopropan-1'-yl]methyl-5-ethenyl-2,4(1H,3H)-pyrimidinedione], the EC50 in data set [1] came to 3.2 µg/mL (≈ 12.7 µM). The compound further yielded a CC50 at 72 h in data set [2] of over 500 µg/mL. Besides, the IC50 in data set [3] was 11.1 µg/mL (≈ 44 µM).

Turning to `C#Cc1cn(C[C@]2(CO)C[C@H]2CO)c(=O)[nH]c1=O` [Example 11, 1-[1'S,2'R-bis(hydroxymethyl)-cyclopropan-1'-yl]methyl-5-ethynyl-2,4(1H,3H)-pyrimidinedione], in data set [1], the EC50 turned out to be 310 µg/mL (≈ 1240 µM). This compound also returned a CC50 at 72 h in data set [2] of over 500 µg/mL. Moreover, in data set [3], the IC50 is over 100 µg/mL.

For `O=c1[nH]c(=O)n(C[C@]2(CO)C[C@H]2CO)cc1Br` [Example 3, 1-[1'S,2'R-bis(hydroxymethyl)-cyclopropan-1'-yl]methyl-5-bromo-2,4(1H,3H)-pyrimidinedione], in data set [1], the EC50 was determined as 215 µg/mL (≈ 705 µM). The compound further returned a half-maximal cytotoxic concentration (CC50) at 72 h in data set [2] of over 500 µg/mL. In addition, in data set [3], the IC50 came to 97 µg/mL (≈ 318 µM).

With `CCc1cn(C[C@]2(CO)C[C@H]2CO)c(=O)[nH]c1=O` [Example 13, 1-[1'S,2'R-bis(hydroxymethyl)-cyclopropan-1'-yl]methyl-5-ethyl-2,4(1H,3H)-pyrimidinedione], the EC50 in data set [1] was found to be 24.3 µg/mL (≈ 95.6 µM). In data set [2], this compound had a cytotoxic concentration (CC50) at 72 h of over 500 µg/mL. For the same compound, the IC50 in data set [3] was 95 µg/mL (≈ 374 µM).

Turning to `O=c1[nH]c(=O)n(C[C@]2(CO)C[C@H]2CO)cc1I` [Example 4, 1-[1'S,2'R-bis(hydroxymethyl)-cyclopropan-1'-yl]methyl-5-iodo-2,4(1H,3H)-pyrimidinedione], the EC50 in data set [1] amounted to 90 µg/mL (≈ 256 µM). In data set [2], this compound gave a CC50 at 72 h of over 500 µg/mL. The IC50 in data set [3] worked out at 9.3 µg/mL (≈ 26.4 µM).

`O=c1[nH]c(=O)n(C[C@]2(CO)C[C@H]2CO)cc1/C=C/Br` [Example 8, 1-[1'S,2'R-bis(hydroxymethyl)-cyclopropan-1'-yl]methyl-5-[(E)-2-bromoethenyl]-2,4(1H,3H)-pyrimidinedione]: in data set [1], the EC50 stood at 14.5 µg/mL (≈ 43.8 µM). Besides, the CC50 at 72 h in data set [2] is over 500 µg/mL. Moreover, the IC50 in data set [3] amounted to 0.031 µg/mL (≈ 0.0936 µM).

Turning to `O=c1[nH]c(=O)n(C[C@]2(CO)C[C@H]2CO)cc1F` [Example 1, 1-[1'S,2'R-bis(hydroxymethyl)-cyclopropan-1'-yl]methyl-5-fluoro-2,4(1H,3H)pyrimidinedione], the EC50 in data set [1] is over 500 µg/mL. This compound showed a half-maximal cytotoxic concentration (CC50) at 72 h in data set [2] of over 500 µg/mL. For the same compound, the IC50 in data set [3] was over 100 µg/mL.

Consider `Nc1nc2c(ncn2COCCO)c(=O)[nH]1` [acyclovir, reference compound], for which the EC50 in data set [1] came to 0.8 µg/mL (≈ 3.55 µM). Further, in data set [2], the CC50 at 72 h is over 500 µg/mL.

Consider `O=c1[nH]c(=O)n(C[C@]2(CO)C[C@H]2CO)cc1/C=C/I` [Example 10, 1-[1'S,2'R-bis(hydroxymethyl)-cyclopropan-1'-yl]methyl-5-[(E)-2-iodoethenyl]-2,4(1H,3H)-pyrimidinedione], for which, in data set [1], the EC50 came to 24.6 µg/mL (≈ 65.1 µM). This compound also showed a CC50 at 72 h in data set [2] of 330 µg/mL (≈ 873 µM). For the same compound, the IC50 in data set [3] came to 0.054 µg/mL (≈ 0.143 µM).

The record behind these values is US5496824A, “Cyclopropane derivatives and anti-viral agent containing the same” (Ajinomoto Co., Inc., priority 1993, dated 1996).
